Test results from patent US11505543B2, “4-oxo-3,4-dihydroquinazoline compounds as inhibitors of human immunodeficiency virus replication” (VIIV HEALTHCARE UK (NO.5) LIMITED, priority 2018, dated 2022).

Key:
[1] = test system: recombinant NL4-3 virus (nef section replaced with Renilla luciferase gene) in MT-2 cells; assay: HIV cell culture assay (antiviral activity, luciferase readout); assay type: cell-based; conditions: Renilla, NL43, MT-2 cells infected for 4-5 days with recombinant NL4-3 Renilla luciferase virus, serial dilutions of compound
In short: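 Test compound in serial dilution was present while MT-2 cells were infected for 4–5 days with recombinant NL4-3 virus made in 293T cells. Antiviral activity was quantified as Renilla luciferase activity, read with a live-cell substrate. EC50 came from the median-effect equation.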

[2] = Compound cytotoxicity, XTT-based colorimetric assay; assay type: cell-based; conditions: human, uninfected MT2 cells, day 4, XTT
In short: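 Run under the antiviral-assay protocol but without virus. Viability was read on day 4 and CC50 values were derived from the readout.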

Row | SMILES | EC50 [1] [pM] | CC50 at 4 day [2] [pM]
1 | Cc1ccnc(-c2ccc3c(=O)n(-c4ccc(Cl)c5c(NS(C)(=O)=O)nn(CC(F)(F)F)c45)c([C@H](Cc4cc(F)cc(F)c4)NC(=O)Cn4nc(C(F)F)c5c4C(F)(F)[C@@H]4C[C@H]54)nc3c2)n1 [Example 162, N-((S)-1-(3-(4-chloro-3-(methylsulfonamido)-1-(2,2,2-trifluoroethyl)-1H-indazol-7-yl)-7-(4-methylpyrimidin-2-yl)-4-oxo-3,4-dihydroquinazolin-2-yl)-2-(3,5-difluorophenyl)ethyl)-2-((3bS,4aR)-3-(difluoromethyl)-5,5-difluoro-3b,4,4a,5-tetrahydro-1H-cyclopropa[3,4]cyclopenta[1,2-c]pyrazol-1-yl)acetamide] | 59 | > 500000
2 | CS(=O)(=O)Nc1nn(CC(F)(F)F)c2c(-n3c([C@H](Cc4cc(F)cc(F)c4)NC(=O)Cn4nc(C(F)F)c5c4C(F)(F)[C@@H]4C[C@H]54)nc4cc(-c5ncccn5)ccc4c3=O)ccc(Cl)c12 [Example 163, N-((S)-1-(3-(4-chloro-3-(methylsulfonamido)-1-(2,2,2-trifluoroethyl)-1H-indazol-7-yl)-4-oxo-7-(pyrimidin-2-yl)-3,4-dihydroquinazolin-2-yl)-2-(3,5-difluorophenyl)ethyl)-2-((3bS,4aR)-3-(difluoromethyl)-5,5-difluoro-3b,4,4a,5-tetrahydro-1H-cyclopropa[3,4]cyclopenta[1,2-c]pyrazol-1-yl)acetamide] | 46 | > 500000
3 | Cc1cc(C)nc(-c2ccc3c(=O)n(-c4ccc(Cl)c5c(NS(C)(=O)=O)nn(CC(F)(F)F)c45)c([C@H](Cc4cc(F)cc(F)c4)NC(=O)Cn4nc(C(F)F)c5c4C(F)(F)[C@@H]4C[C@H]54)nc3c2)n1 [Example 164, N-((S)-1-(3-(4-chloro-3-(methylsulfonamido)-1-(2,2,2-trifluoroethyl)-1H-indazol-7-yl)-7-(4,6-dimethylpyrimidin-2-yl)-4-oxo-3,4-dihydroquinazolin-2-yl)-2-(3,5-difluorophenyl)ethyl)-2-((3bS,4aR)-3-(difluoromethyl)-5,5-difluoro-3b,4,4a,5-tetrahydro-1H-cyclopropa[3,4]cyclopenta[1,2-c]pyrazol-1-yl)acetamide] | 96 | > 500000
4 | Cc1nccnc1-c1ccc2c(=O)n(-c3ccc(Cl)c4c(NS(C)(=O)=O)nn(CC(F)(F)F)c34)c([C@H](Cc3cc(F)cc(F)c3)NC(=O)Cn3nc(C(F)F)c4c3C(F)(F)[C@@H]3C[C@H]43)nc2c1 [Example 165, N-((S)-1-(3-(4-chloro-3-(methylsulfonamido)-1-(2,2,2-trifluoroethyl)-1H-indazol-7-yl)-7-(3-methylpyrazin-2-yl)-4-oxo-3,4-dihydroquinazolin-2-yl)-2-(3,5-difluorophenyl)ethyl)-2-((3bS,4aR)-3-(difluoromethyl)-5,5-difluoro-3b,4,4a,5-tetrahydro-1H-cyclopropa[3,4]cyclopenta[1,2-c]pyrazol-1-yl)acetamide] | 50 | > 500000
5 | Cc1ncc(-c2ccc3c(=O)n(-c4ccc(Cl)c5c(NS(C)(=O)=O)nn(CC(F)(F)F)c45)c([C@H](Cc4cc(F)cc(F)c4)NC(=O)Cn4nc(C(F)F)c5c4C(F)(F)[C@@H]4C[C@H]54)nc3c2)cn1 [Example 166, N-((S)-1-(3-(4-chloro-3-(methylsulfonamido)-1-(2,2,2-trifluoroethyl)-1H-indazol-7-yl)-7-(2-methylpyrimidin-5-yl)-4-oxo-3,4-dihydroquinazolin-2-yl)-2-(3,5-difluorophenyl)ethyl)-2-((3bS,4aR)-3-(difluoromethyl)-5,5-difluoro-3b,4,4a,5-tetrahydro-1H-cyclopropa[3,4]cyclopenta[1,2-c]pyrazol-1-yl)acetamide] | 37 | > 500000
6 | CS(=O)(=O)Nc1nn(CC(F)(F)F)c2c(-n3c([C@H](Cc4cc(F)cc(F)c4)NC(=O)Cn4nc(C(F)F)c5c4C(F)(F)[C@@H]4C[C@H]54)nc4cc(-c5ccccc5S(C)(=O)=O)ccc4c3=O)ccc(Cl)c12 [Example 167, N-((S)-1-(3-(4-chloro-3-(methylsulfonamido)-1-(2,2,2-trifluoroethyl)-1H-indazol-7-yl)-7-(2-(methylsulfonyl)phenyl)-4-oxo-3,4-dihydroquinazolin-2-yl)-2-(3,5-difluorophenyl)ethyl)-2-((3bS,4aR)-3-(difluoromethyl)-5,5-difluoro-3b,4,4a,5-tetrahydro-1H-cyclopropa[3,4]cyclopenta[1,2-c]pyrazol-1-yl)acetamide] | 80 | > 500000
7 | Cn1nc(NS(C)(=O)=O)c2c(Cl)ccc(-n3c([C@H](Cc4cc(F)cc(F)c4)NC(=O)Cn4nc(C(F)F)c5c4C(F)(F)[C@@H]4C[C@H]54)nc4cc(-c5ccc(F)c(F)c5F)ccc4c3=O)c21 [Example 168, N-((S)-1-(3-(4-chloro-1-methyl-3-(methylsulfonamido)-1H-indazol-7-yl)-4-oxo-7-(2,3,4-trifluorophenyl)-3,4-dihydroquinazolin-2-yl)-2-(3,5-difluorophenyl)ethyl)-2-((3bS,4aR)-3-(difluoromethyl)-5,5-difluoro-3b,4,4a,5-tetrahydro-1H-cyclopropa[3,4]cyclopenta[1,2-c]pyrazol-1-yl)acetamide] | 700 | > 500000
8 | Cn1nc(NS(C)(=O)=O)c2c(Cl)ccc(-n3c([C@H](Cc4cc(F)cc(F)c4)NC(=O)Cn4nc(C(F)F)c5c4C(F)(F)[C@@H]4C[C@H]54)nc4cc(-c5ccc(F)c(C#N)c5F)ccc4c3=O)c21 [Example 170, N-((S)-1-(3-(4-chloro-1-methyl-3-(methylsulfonamido)-1H-indazol-7-yl)-7-(3-cyano-2,4-difluorophenyl)-4-oxo-3,4-dihydroquinazolin-2-yl)-2-(3,5-difluorophenyl)ethyl)-2-((3bS,4aR)-3-(difluoromethyl)-5,5-difluoro-3b,4,4a,5-tetrahydro-1H-cyclopropa[3,4]cyclopenta[1,2-c]pyrazol-1-yl)acetamide] | 580 | > 500000
9 | Cn1nc(NS(C)(=O)=O)c2c(Cl)ccc(-n3c([C@H](Cc4cc(F)cc(F)c4)NC(=O)Cn4nc(C(F)F)c5c4C(F)(F)[C@@H]4C[C@H]54)nc4cc(-c5c(F)cc(F)cc5F)ccc4c3=O)c21 [Example 172, N-((S)-1-(3-(4-chloro-1-methyl-3-(methylsulfonamido)-1H-indazol-7-yl)-4-oxo-7-(2,4,6-trifluorophenyl)-3,4-dihydroquinazolin-2-yl)-2-(3,5-difluorophenyl)ethyl)-2-((3bS,4aR)-3-(difluoromethyl)-5,5-difluoro-3b,4,4a,5-tetrahydro-1H-cyclopropa[3,4]cyclopenta[1,2-c]pyrazol-1-yl)acetamide] | 250 | > 500000
10 | Cn1nc(NS(C)(=O)=O)c2c(Cl)ccc(-n3c([C@H](Cc4cc(F)cc(F)c4)NC(=O)Cn4nc(C(F)F)c5c4C(F)(F)[C@@H]4C[C@H]54)nc4cc(-c5ccc(F)c(F)c5)ccc4c3=O)c21 [Example 173, N-((S)-1-(3-(4-chloro-1-methyl-3-(methylsulfonamido)-1H-indazol-7-yl)-7-(3,4-difluorophenyl)-4-oxo-3,4-dihydroquinazolin-2-yl)-2-(3,5-difluorophenyl)ethyl)-2-((3bS,4aR)-3-(difluoromethyl)-5,5-difluoro-3b,4,4a,5-tetrahydro-1H-cyclopropa[3,4]cyclopenta[1,2-c]pyrazol-1-yl)acetamide] | 680 | > 500000
11 | Cc1ncc(-c2ccc3c(=O)n(-c4ccc(Cl)c5c(NS(C)(=O)=O)nn(CC(F)F)c45)c([C@H](Cc4cc(F)cc(F)c4)NC(=O)Cn4nc(C(F)F)c5c4C(F)(F)[C@@H]4C[C@H]54)nc3c2)cn1 [Example 174, N-((S)-1-(3-(4-chloro-1-(2,2-difluoroethyl)-3-(methylsulfonamido)-1H-indazol-7-yl)-7-(2-methylpyrimidin-5-yl)-4-oxo-3,4-dihydroquinazolin-2-yl)-2-(3,5-difluorophenyl)ethyl)-2-((3bS,4aR)-3-(difluoromethyl)-5,5-difluoro-3b,4,4a,5-tetrahydro-1H-cyclopropa[3,4]cyclopenta[1,2-c]pyrazol-1-yl)acetamide] | 33 | > 500000
12 | Cc1cccc(-c2ccc3c(=O)n(-c4ccc(Cl)c5c(NS(C)(=O)=O)nn(CC(F)F)c45)c([C@H](Cc4cc(F)cc(F)c4)NC(=O)Cn4nc(C(F)F)c5c4C(F)(F)[C@@H]4C[C@H]54)nc3c2)n1 [Example 175, N-((S)-1-(3-(4-chloro-1-(2,2-difluoroethyl)-3-(methylsulfonamido)-1H-indazol-7-yl)-7-(6-methylpyridin-2-yl)-4-oxo-3,4-dihydroquinazolin-2-yl)-2-(3,5-difluorophenyl)ethyl)-2-((3bS,4aR)-3-(difluoromethyl)-5,5-difluoro-3b,4,4a,5-tetrahydro-1H-cyclopropa[3,4]cyclopenta[1,2-c]pyrazol-1-yl)acetamide] | 80 | > 500000
13 | CS(=O)(=O)Nc1nn(CC(F)F)c2c(-n3c([C@H](Cc4cc(F)cc(F)c4)NC(=O)Cn4nc(C(F)F)c5c4C(F)(F)[C@@H]4C[C@H]54)nc4cc(-c5ccccc5S(C)(=O)=O)ccc4c3=O)ccc(Cl)c12 [Example 176, N-((S)-1-(3-(4-chloro-1-(2,2-difluoroethyl)-3-(methylsulfonamido)-1H-indazol-7-yl)-7-(2-(methylsulfonyl)phenyl)-4-oxo-3,4-dihydroquinazolin-2-yl)-2-(3,5-difluorophenyl)ethyl)-2-((3bS,4aR)-3-(difluoromethyl)-5,5-difluoro-3b,4,4a,5-tetrahydro-1H-cyclopropa[3,4]cyclopenta[1,2-c]pyrazol-1-yl)acetamide] | 66 | > 500000
